Tests used:
[1] = test system: primary culture of mice fibroblast; assay: bFGF-stimulated proliferation of primary fibroblast culture; assay type: cell-based; conditions: bFGF 0.5 g/ml; tested at 25, 12.5, 6.25, 3.125 or 1.56 μg
Procedure: Using bFGF (0.5 µg/ml), the proliferation of primary culture of mice fibroblast with the presence of asiaticoside or asiatic acid at 25, 12.5, 6.25, 3.125 or 1.56 μg respectively was assessed.

[2] = PK study: plasma asiaticoside and asiatic acid after intragastric asiaticoside; assay type: in vivo, SD rats; conditions: asiaticoside 100 mg/kg intragastric; 0.5-24 hours; LC/MS
Procedure: SD rats were given asiaticoside through intragastric administration at 100 mg/kg. The blood samples were taken 0.5, 1, 2, 4, 6, 9, 12 and 24 hours after administration respectively. Plasma samples were prepared and analyzed for asiaticoside and asiatic acid concentration by LC/MS or GC/MS respectively. […] The plasma concentration of asiatic acid peaked after 4-6 hours after administration.

[3] = test system: rats with pulmonary fibrosis induced by bleomycin; assay: Pharmacodynamics of asiaticoside in rats with pulmonary fibrosis induced by bleomycin; assay type: in vivo
Procedure: The rats with lung fibrosis were induced by bleomycin through trachea administration and then treated with asiaticoside. […] The study regimen lasted for 28 days. The lung weight coefficient and hydroyproline (HXP) content were measured on day 2 and 8 after the formation of animal model. CT scan, pathology and serum ECM content measurements were conducted on day 14, 21 and 28 days respectively.

[4] = test system: radiation pneumonia and subsequent pulmonary fibrosis induced by Cobalt-60 radiation; assay: Pharmacodynamics of asiaticoside in radiation pneumonia induced by Cobalt-60 radiation; assay type: in vivo, rats; design: Type IV (collagen content comparison, serum ECM) / Laminin (serum ECM) / Hyaluronic Acid (serum ECM): unit not given here
Procedure: Radiation pneumonia and subsequent pulmonary fibrosis in rats was induced by Cobalt-60 radiation. The efficacies were assessed by the lung weight coefficient, HXP content, serum ECM measurement, CT scan and pathological examinations.

[5] = Pharmacokinetics, tissue distribution and excretion of asiaticoside; assay type: in vivo, rats; conditions: rats, asiaticoside gavage, highest dose (100 mg/kg)
Procedure: Three doses of asiaticoside (10, 33, 100 mg/kg) were gavaged to rats (n=6) and canines (n=4). After dosing, blood was sampled up to 120 or 216 hours in rats and canines respectively. Tissue distribution and excretion studies in rats were carried out with the highest dose.
The respective asiaticoside and asiatic acid in the same bio-matrix were detected by LC/MS/MS and GC/MS. Because the secondary peak resembled a plasma concentration-time profile in both rat and canine rather than conventional compartment fitting, statistical moment analysis was used in calculating pharmacokinetic parameters. […] In addition to the targeted organ, both asiaticoside and asiatic acid were distributed in some other organs, which could be the sign to expand clinical indications.

[6] = test system: Beagle dogs; assay: Chronic toxicity study in Beagle dogs; assay type: in vivo
Procedure: Beagle dogs were given 18, 72 or 240 mg/kg asiaticoside respectively daily for 9 consecutive months along with a control group.

[7] = test system: Beagle dogs; assay: Acute toxicity study in Beagle dogs; assay type: in vivo; conditions: single administration
Excerpt: Therefore the highest dosage was given to the animal. […] Food uptake and activity were normal in the observation period.

[8] = test system: SD rats; assay: Embryonic and fetus toxicity and teratogenicity test in SD rats; assay type: in vivo
Procedure: SD rats were given 120, 380 or 1200 mg/kg of asiaticoside respectively through intragastric administration for 10 consecutive days from day 6-15 of gestation. […] Nor there were any fetus anomalies or obform.

[9] = test system: SD rats; assay: General reproductive toxicity study in rats; assay type: in vivo
Procedure: SD rats were intragastric administrated with 120, 380 or 1200 mg/kg of asiaticoside respectively. Male and female were given 4 weeks or two weeks of asiaticoside before combining the cages. The male ones were given 5 additional weeks of asiaticoside, while female ones were given the drug till the 15th day of gestation. […] Weight, contour, internal organs and skeleton of fetus were all normal.

[10] = asiaticoside, range over 3 doses (4, 12, 36 mg/kg)

C[C@H]1[C@H](C)CC[C@]2(C(=O)O[C@@H]3O[C@H](CO[C@@H]4O[C@H](CO)[C@@H](O[C@@H]5O[C@H](C)[C@H](O)[C@@H](O)[C@H]5O)[C@H](O)[C@H]4O)[C@@H](O)[C@H](O)[C@H]3O)CC[C@]3(C)C(=CC[C@@H]4[C@@]5(C)C[C@@H](O)[C@H](O)[C@@](C)(CO)[C@@H]5CC[C@]43C)[C@H]12 [Asiaticoside, asiaticoside]
Inhibitory activity on fibroblast proliferation [1]: no apparent inhibitory activity | Plasma concentration of asiaticoside [2]: only trace quantity | HXP content ([3]; asiaticoside 4 mg/kg, 28 days): 19.63 ± 3.91 mg/g | Lung weight coefficient ([3]; asiaticoside 4 mg/kg, 28 days): 0.63% | HXP content ([3]; asiaticoside 12 mg/kg, 28 days): 18.95 ± 7.00 mg/g | Lung weight coefficient ([3]; asiaticoside 12 mg/kg, 28 days): 0.66% | HXP content ([3]; asiaticoside 36 mg/kg, 28 days): 18.56 ± 3.98 mg/g | Lung weight coefficient ([3]; asiaticoside 36 mg/kg, 28 days): 0.64% | Pathology ([3]; asiaticoside 4, 12, 36 mg/kg): light fibroplasias in alveoli pulmonis diaphragm, light lymphocyte infiltration and compensatory emphysema | CT scan findings ([3]; asiaticoside 4, 12, 36 mg/kg, not dose dependent): ground glass infiltration in the lung tissue was found, but was significantly less than in the model group | Overall efficacy ([3]; asiaticoside 4, 12 and 36 mg/kg, 28 days): efficacious in preventing and treating lung fibrosis induced by bleomycin to certain extent | ET-1 (cytokine content) [3, 10]: 229.62-241.60 | Hyaluronic Acid (serum ECM) [3, 10]: 112.66-312.28 | Laminin (serum ECM) [3, 10]: 43.83-55.75 | PIIIP (collagen content comparison, serum ECM) [3, 10]: 13.87-24.54 | TNF-α (cytokine content) [3, 10]: 5.20-6.49 | TNF-[…] (cytokine content) [3, 10]: 0.067-0.077 | Type IV (collagen content comparison, serum ECM) [3, 10]: 4.33-10.45 | HXP content ([4]; asiaticoside 4 mg/kg): 40.88 ± 9.77 mg/g | Hyaluronic Acid (serum ECM) ([4]; asiaticoside 4 mg/kg): 259.01 ± 64.39 | Laminin (serum ECM) ([4]; asiaticoside 4 mg/kg): 39.21 ± 5.69 | Lung weight coefficient ([4]; asiaticoside 4 mg/kg): 0.42% | PIIIP (collagen content comparison, serum ECM) ([4]; asiaticoside 4 mg/kg): 21.00 ± 9.50 | Type IV (collagen content comparison, serum ECM) ([4]; asiaticoside 4 mg/kg): 14.74 ± 4.03 | HXP content ([4]; asiaticoside 12 mg/kg): 32.78 ± 4.37 mg/g | Hyaluronic Acid (serum ECM) ([4]; asiaticoside 12 mg/kg): 246.91 ± 33.2 | Laminin (serum ECM) ([4]; asiaticoside 12 mg/kg): 41.11 ± 9.15 | Lung weight coefficient ([4]; asiaticoside 12 mg/kg): 0.20% | PIIIP (collagen content comparison, serum ECM) ([4]; asiaticoside 12 mg/kg): 18.84 ± 10.70 | Type IV (collagen content comparison, serum ECM) ([4]; asiaticoside 12 mg/kg): 11.97 ± 4.09 | HXP content ([4]; asiaticoside 36 mg/kg): 31.38 ± 4.75 mg/g | Hyaluronic Acid (serum ECM) ([4]; asiaticoside 36 mg/kg): 220.64 ± 67.55 | Laminin (serum ECM) ([4]; asiaticoside 36 mg/kg): 48.29 ± 10.67 | Lung weight coefficient ([4]; asiaticoside 36 mg/kg): 0.34% | PIIIP (collagen content comparison, serum ECM) ([4]; asiaticoside 36 mg/kg): 14.27 ± 10.40 | Type IV (collagen content comparison, serum ECM) ([4]; asiaticoside 36 mg/kg): 10.04 ± 5.69 | CT scan findings ([4]; high dose asiaticoside group): a few fibrotic streaks | CT scan findings ([4]; low dose asiaticoside group): mild ground glass infiltration and atelectasis in the right lower lung | CT scan findings ([4]; median dose asiaticoside group): mild ground glass infiltration and fibrotic streaks in the right lung | Overall efficacy ([4]; pulmonary fibrosis induced by radiation): efficacious in treating pulmonary fibrosis induced by radiation to certain extent | Main excretion route [5]: feces, bile and urine | Tissue accumulation [5]: no apparent tissue accumulation | Nontoxic dose as multiple of proposed clinical dosage in human ([6]; 240 mg/kg/d): 40 × | Nontoxic dose ([6]; 9-month chronic toxicity study, 18, 72 or 240 mg/kg daily): 240 mg/kg/day | Toxicity observations (behavior, activity, weight, mental state, excrement and urine) ([6]; 18, 72 or 240 mg/kg daily for 9 consecutive months): no apparent toxicity | Highest dose given, no toxicity observed (no acute LD50 could be measured) [7]: 10 g/kg | Dose without embryonic and fetus toxicity as multiple of effective dose (6 mg/kg) in mice ([8]; 1.2 g/kg): 200 × | Incidence rate of enlargement of fetus pelvis renalis ([8]; 1.2 g/kg): increased, yet this was not statistically significant | Embryonic and fetus toxicity ([8]; 120, 380 or 1200 mg/kg intragastric, day 6-15 of gestation): no embryonic and fetus toxicity | Dose with no embryonic and fetus toxicity ([8]; intragastric, day 6-15 of gestation): 1.2 g/kg | Clinical observation in male and female animals ([9]; 1.2 g/kg): bleeding around apertura narium | Reproductive toxicity ([9]; 120, 380 or 1200 mg/kg intragastric): no reproductive toxicity

From US20070010459A1, “Application of asiatic acid and its derivatives to treat pulmonary fibrosis” (priority 2005, published 2007)
